Reference: patent US11873295B2, “Allosteric chromenone inhibitors of phosphoinositide 3-kinase (PI3K) for the treatment of disease” (Petra Pharma Corporation, priority 2021, dated 2024)

What was measured:
[1] = target: T1, human full length PIK3KA H1047R mutant (p110α/p85α complex) (Homo sapiens, UniProt P42336, H1047R); assay: PI3K-alpha kinase (PIK3CA) biochemical activity, H1047R mutant, ADP-Glo; details: PI3K-α (PIK3CA) biochemical, H1047R mutant, Soy PI lipid substrate
T1 construct: Recombinant, catalytically active human full length PIK3KA Wild-type and H1047R mutant were purchased as 1:1 complex; 6xHis (N); purchased EMD Millipore Sigma 14-792M
Procedure, shortened: (§1)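 ADP formation, read by ADP-Glo, is run to about 10% ATP turnover at 27 °C with 20 μM ATP and 50 μM PIP2diC8 or soy PI. WT or H1047R p110α/p85α (1–5 nM) is pre-incubated 1 h with compound in HEPES pH 7.4/MgCl2/Triton buffer, 1% DMSO. 10-point 1:3 series, logistic IC50 versus no-enzyme and DMSO controls.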

[2] = system: PI3K-α (PIK3CA) in MDA-MB-453 cells; assay: PI3K-alpha kinase (PIK3CA) activity in vitro cell based assay, MDA-MB-453 cells, AlphaLisa SureFire; details: 0% FBS, 3 hours treatment, relative IC50
Experimental: PI3K-Alpha Kinase (PIK3CA) Activity In Vitro Cell Based Assay and Determining IC50 Values for Inhibitors
The MDA-MB-453 (ATCC-HTB-131) cell line was obtained from the American Type Culture Collection (Manassas, VA). Cells were maintained in Dulbecco's Modified Eagle Media (DMEM, Gibco 11965-092) supplemented with 10% Fetal Bovine Serum, heat inactivated (FBS HI, Gibco 10082-147), 1× non-essential amino acids (NEAA, Gibco 11140-050), and 1 mM sodium pyruvate (Gibco 11360-070). Cultures were maintained in a humidified incubator at 37° C. under 5% CO2/95% air.
For compound testing in 0% FBS, MDA-MB-453 cells were seeded at a density of 1.5×10^4 cells per well in white 384-well plates in 20 μl of Minimum Essential Media (MEM) assay media with 1×NEAA, 1 mM sodium pyruvate, and 1 μg/mL human insulin (Sigma I9278). Compounds dissolved in 10 mM stock solutions in DMSO were serially diluted 1:3 in DMSO to generate a 10-point dilution series and plated using an acoustic liquid handler system (Echo 550 Series Liquid Handler, Labcyte). A 5× intermediate compound dilution plate in MEM with 1×NEAA and 1 mM sodium pyruvate (150 μM starting compound concentration in 1.5% DMSO) was then prepared. Five μl of the intermediate serially diluted compounds were added to the cell plate to final concentrations ranging from […] in 0.3% DMSO. 0.3% DMSO alone was used to establish the maximum (MAX) signal and GDC-0032 at a final concentration of 1 μM was used as a reference compound for the minimum (MIN) signal. After 3 hours treatment, the medium was removed, and the cells lysed in 10 μL of 1× SureFire Lysis buffer with shaking for 10 minutes at room temperature. The Acceptor Mix (Reaction Buffer 1+Reaction Buffer 2+Activation Buffer+SureFire Ultra Acceptor Beads) was prepared by diluting Activation buffer 25-fold in combined Reaction Buffer 1 and Reaction Buffer 2. The Acceptor beads were diluted 50-fold in the combined Reaction Buffers. Five μL of Acceptor Mix was added to each well, the plate was sealed and covered with foil and incubated for 1 hour at room temperature. The Donor Mix (dilution buffer+SureFire Ultra Donor Beads) was prepared by diluting Donor Beads 50-fold in dilution buffer. Five μL of the Donor Mix was added to each well and the plate sealed and covered with foil and incubated for 1 hour at room temperature in the dark. The plates were read on a Neo2 plate reader instrument from Biotek using standard AlphaLisa settings. Compounds were tested in duplicate and the average % inhibition at each compound concentration was used to generate a single dose response curve. The data were processed using the Genedata-Screener tool. Relative IC50 values were determined using luminescence units by calculating percent inhibition with respect to the in-plate “MIN” (GDC-0032 reference control) and “MAX” (DMSO) controls. The data was analyzed using a 4-parameter nonlinear logistic equation (four-parameter logistic concentration-response curve): Y=bottom+[(top−bottom)/1+(X/IC50)slope] where Y=% inhibition, X=concentration of inhibitor, bottom=minimum value of y attained by curve-fit, top=maximum value of y attained by curve-fit and slope=steepness of curve at the IC50. % Inhibition=[(signal at X−median Min)/(median Max−median Min)]×100 IC50: concentration of compound that reduces a given response (ligand binding, enzyme response) by 50%. Relative IC50: concentration giving half the compound's maximum response.
For IC50 values shown in Table B, “A” means IC50<50 nM; “B” means IC50 ranging between 50 nM and 100 nM; “C” means IC50 ranging between 100 nM and 500 nM; “D” means IC50>500 nM.

[3] = target: T2, human full length PIK3KA Wild-type (p110α/p85α complex) (Homo sapiens, UniProt P42336); assay: PI3K-alpha kinase (PIK3CA) biochemical activity, wild-type, ADP-Glo; details: PI3K-α (PIK3CA) biochemical, Soy PI lipid substrate
T2 construct: Recombinant, catalytically active human full length PIK3KA Wild-type and H1047R mutant were purchased as 1:1 complex; 6xHis (N); purchased EMD Millipore Sigma 14-602M
Procedure, shortened: as §1

T1 sequence (P42336 whole entry H1047R): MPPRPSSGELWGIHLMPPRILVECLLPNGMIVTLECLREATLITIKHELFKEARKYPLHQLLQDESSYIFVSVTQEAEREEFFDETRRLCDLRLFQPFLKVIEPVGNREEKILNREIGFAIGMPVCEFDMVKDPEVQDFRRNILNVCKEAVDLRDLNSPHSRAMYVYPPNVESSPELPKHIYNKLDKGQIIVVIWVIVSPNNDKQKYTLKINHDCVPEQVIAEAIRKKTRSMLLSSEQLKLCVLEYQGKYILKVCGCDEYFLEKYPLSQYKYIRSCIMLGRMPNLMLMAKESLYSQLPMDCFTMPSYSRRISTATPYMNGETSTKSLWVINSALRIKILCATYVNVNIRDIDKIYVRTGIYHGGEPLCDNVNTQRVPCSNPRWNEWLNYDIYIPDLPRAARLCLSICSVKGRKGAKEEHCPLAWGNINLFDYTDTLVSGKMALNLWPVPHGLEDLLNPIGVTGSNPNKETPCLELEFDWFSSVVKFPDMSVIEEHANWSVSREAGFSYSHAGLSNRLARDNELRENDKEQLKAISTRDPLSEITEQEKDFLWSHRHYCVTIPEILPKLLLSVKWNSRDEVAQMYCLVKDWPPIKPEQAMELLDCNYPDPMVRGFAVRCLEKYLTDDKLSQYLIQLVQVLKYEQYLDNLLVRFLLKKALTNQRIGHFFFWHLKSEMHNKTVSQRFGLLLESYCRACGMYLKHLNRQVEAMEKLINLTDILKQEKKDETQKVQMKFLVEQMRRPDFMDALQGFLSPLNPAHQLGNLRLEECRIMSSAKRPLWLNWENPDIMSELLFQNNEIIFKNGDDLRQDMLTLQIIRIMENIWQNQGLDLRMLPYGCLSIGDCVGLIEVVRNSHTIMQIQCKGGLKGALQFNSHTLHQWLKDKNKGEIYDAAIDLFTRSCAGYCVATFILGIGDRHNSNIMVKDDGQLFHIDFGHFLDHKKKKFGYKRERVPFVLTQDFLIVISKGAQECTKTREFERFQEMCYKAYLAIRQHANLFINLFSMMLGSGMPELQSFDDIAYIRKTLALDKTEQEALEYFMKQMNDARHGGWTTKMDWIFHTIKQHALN
T1 sequence (P27986 whole entry partner): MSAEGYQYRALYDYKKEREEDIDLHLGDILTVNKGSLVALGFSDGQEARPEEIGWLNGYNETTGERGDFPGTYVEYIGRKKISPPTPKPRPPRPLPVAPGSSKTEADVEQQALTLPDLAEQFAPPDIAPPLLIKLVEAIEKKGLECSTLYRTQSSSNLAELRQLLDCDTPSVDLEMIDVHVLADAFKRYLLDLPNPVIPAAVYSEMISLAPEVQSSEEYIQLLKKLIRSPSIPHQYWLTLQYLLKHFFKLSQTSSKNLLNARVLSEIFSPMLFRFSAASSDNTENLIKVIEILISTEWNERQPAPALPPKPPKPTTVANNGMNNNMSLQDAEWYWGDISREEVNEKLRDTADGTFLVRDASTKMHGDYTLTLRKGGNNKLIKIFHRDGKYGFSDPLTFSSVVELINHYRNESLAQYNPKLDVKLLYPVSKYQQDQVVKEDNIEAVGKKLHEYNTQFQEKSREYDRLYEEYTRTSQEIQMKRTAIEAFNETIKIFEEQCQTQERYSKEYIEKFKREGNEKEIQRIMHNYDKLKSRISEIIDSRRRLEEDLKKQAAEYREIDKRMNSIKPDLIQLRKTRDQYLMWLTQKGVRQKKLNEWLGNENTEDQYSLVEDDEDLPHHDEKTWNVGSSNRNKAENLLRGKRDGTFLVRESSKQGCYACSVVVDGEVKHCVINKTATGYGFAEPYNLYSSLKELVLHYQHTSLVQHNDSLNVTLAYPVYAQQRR

Compound	IC50 [1] [nM]	IC50 [2] [nM]	IC50 [3] [nM]	IC50 ([2]; Homo sapiens, MDA-MB-453, 3 h) [nM]
2-[[(1R)-1-[3,6-Dimethyl-4-oxo-2-[4-(1H-pyrazol-5-yl)phenyl]chromen-8-yl]ethyl]amino]benzoic acid [Example 169]	< 500	< 50	< 500	
Cc1cc(C(C)Nc2ccccc2C(=O)O)c2oc(-c3cccc(C(C)(C)C#N)c3)cc(=O)c2c1 (single isomer, unassigned; isomer 1) [Example 4, 2-[1-[2-[3-(1-Cyano-1-methyl-ethyl)phenyl]-6-methyl-4-oxo-chromen-8-yl]ethylamino]benzoic acid, Isomer 1]	> 10000		> 10000	> 500
Cc1cc(C(C)Nc2ccccc2C(=O)O)c2oc(-c3ccc(C4(C#N)CC4)cc3)cc(=O)c2c1 (single isomer, unassigned; isomer 1) [Example 52, 2-[1-[2-[4-(l-Cyanocyclopropyl)phenyl]-6-methyl-4-oxo-chromen-8-yl]ethylamino]benzoic acid, Isomer 1]	5000 to 10000		5000 to 10000	> 500
Cc1cc(C(C)Nc2cccc(F)c2C(=O)O)c2oc(-c3cccc(F)c3)c(C)c(=O)c2c1 (single isomer, unassigned; isomer 1) [Example 105, 2-Fluoro-6-[1-[2-(3-fluorophenyl)-3,6-dimethyl-4-oxo-chromen-8-yl]ethylamino]benzoic acid, Isomer 1]	< 500	< 50	1000 to 5000	
COc1ccc(NC(C)c2cc(C)cc3c(=O)c(C)c(-c4ccccc4)oc23)c(C(=O)O)n1 (single isomer, unassigned; isomer 1) [Example 109, 3-[1-(3,6-Dimethyl-4-oxo-2-phenyl-chromen-8-yl)ethylamino]-6-methoxy-pyridine-2-carboxylic acid, Isomer 1]	< 500	< 50	500 to 1000	
Cc1cc(C(C)Nc2ccccc2C(=O)O)c2oc(-c3ccccc3)c(F)c(=O)c2c1 (single isomer, unassigned; isomer 1) [Example 132, 2-[1-(3-Fluoro-6-methyl-4-oxo-2-phenyl-chromen-8-yl)ethylamino]benzoic acid, Isomer 1]	< 500		1000 to 5000	< 50
Cc1cc([C@@H](C)Nc2ccc(C#N)cc2C(=O)O)c2oc(-c3ccccc3)c(C)c(=O)c2c1 (single isomer, unassigned; isomer 1) [Example 157]	5000 to 10000	> 500	5000 to 10000	
Cc1cc([C@@H](C)Nc2ccc(C#N)nc2C(=O)O)c2oc(-c3ccccc3)c(C)c(=O)c2c1 (single isomer, unassigned; isomer 1) [Example 159]	< 500		500 to 1000	< 50
Cc1cc(C(C)Nc2ccccc2C(=O)O)c2oc(-c3ccc(C(=O)N(C)C)cc3)cc(=O)c2c1 (single isomer, unassigned; isomer 2) [Example 50, 2-[1-[2-[4-(Dimethylcarbamoyl)-phenyl]-6-methyl-4-oxo-chromen-8-yl]ethylamino]benzoic acid, Isomer 2]	5000 to 10000		> 10000	> 500
Cc1cc(C(C)Nc2ccccc2C(=O)O)c2oc(-c3ccc(N4CCCC4)cc3)cc(=O)c2c1 (single isomer, unassigned; isomer 2) [Example 55, 2-[1-[6-Methyl-4-oxo-2-(4-pyrrolidin-1-ylphenyl)chromen-8-yl]ethylamino]benzoic acid, Isomer 2]	< 500		1000 to 5000	100 to 500
Cc1cc([C@@H](C)Nc2ccc(C)nc2C(=O)O)c2oc(-c3ccccc3)c(C(F)(F)F)c(=O)c2c1 [Example 116, 6-Methyl-3-[[(1R)-1-[6-methyl-4-oxo-2-phenyl-3-(trifluoromethyl)-chromen-8-yl]ethyl]amino]pyridine-2-carboxylic acid]				< 50
Cc1cc([C@@H](C)Nc2cccc(F)c2C(=O)O)c2oc(-c3cccc(F)c3)c(C)c(=O)c2c1 [Example 143, 2-Fluoro-6-[[(1R)-1-[2-(3-fluorophenyl)-3,6-dimethyl-4-oxo-chromen-8-yl]ethyl]amino]benzoic acid 2,2,2-trifluoroacetic acid]				< 50
Cc1cc([C@@H](C)Nc2ccccc2C(=O)O)c2oc(-c3cccc(C#N)c3F)c(C)c(=O)c2c1 [Example 170, 2-[[(1R)-1-[2-(3-Cyano-2-fluoro-phenyl)-3,6-dimethyl-4-oxo-chromen-8-yl]ethyl]amino]benzoic acid]				< 50
Cc1cc([C@@H](C)Nc2ccccc2C(=O)O)c2oc(-c3ccc(-c4ccc(C#N)cc4)cc3)c(C)c(=O)c2c1 [Example 172, 2-[[(1R)-1-[2-[4-(4-Cyanophenyl)phenyl]-3,6-dimethyl-4-oxo-chromen-8-yl]ethyl]amino]benzoic acid]				50 to 100
Cc1cc([C@@H](C)Nc2ccccc2C(=O)O)c2oc(-c3ccc(-c4cccc(C#N)c4)cc3)c(C)c(=O)c2c1 [Example 173, 2-[[(1R)-1-[2-[4-(3-Cyanophenyl)phenyl]-3,6-dimethyl-4-oxo-chromen-8-yl]ethyl]amino]benzoic acid]				50 to 100
Cc1cc([C@@H](C)Nc2ccccc2C(=O)O)c2oc(-c3cccc(-c4ccccc4C#N)c3)c(C)c(=O)c2c1 [Example 174, 2-[[(1R)-1-[2-[3-(2-Cyanophenyl)phenyl]-3,6-dimethyl-4-oxo-chromen-8-yl]ethyl]amino]benzoic acid]				< 50
Cc1cc([C@@H](C)Nc2ccccc2C(=O)O)c2oc(-c3cccc(-c4ccc(C#N)cc4)c3)c(C)c(=O)c2c1 [Example 175, 2-[[(1R)-1-[2-[3-(4-Cyanophenyl)phenyl]-3,6-dimethyl-4-oxo-chromen-8-yl]ethyl]amino]benzoic acid]				50 to 100
Cc1cc([C@@H](C)Nc2ccccc2C(=O)O)c2oc(-c3cccc(-c4cccc(C#N)c4)c3)c(C)c(=O)c2c1 [Example 176, 2-[[(1R)-1-[2-[3-(3-Cyanophenyl)phenyl]-3,6-dimethyl-4-oxo-chromen-8-yl]ethyl]amino]benzoic acid]				50 to 100
Cc1cc([C@@H](C)Nc2ccccc2C(=O)O)c2oc(-c3ccc(-c4ccccc4C#N)cc3)c(C)c(=O)c2c1 [Example 177, 2-[[(1R)-1-[2-[4-(2-Cyanophenyl)phenyl]-3,6-dimethyl-4-oxo-chromen-8-yl]ethyl]amino]benzoic acid]				< 50
Cc1cc([C@@H](C)Nc2ccccc2C(=O)O)c2oc(-c3cccc(-n4cc(C#N)cn4)c3)c(C)c(=O)c2c1 [Example 178, 2-[[(1R)-1-[2-[3-(4-Cyanopyrazol-1-yl)phenyl]-3,6-dimethyl-4-oxo-chromen-8-yl]ethyl]amino]benzoic acid 2,2,2-trifluoroacetic acid]				< 50
